Reference: the supplement of paper PMC10307832

What was measured:
Experiment in all cases: relative viability (nuclei count vs DMSO), 5 days (fraction); higher = more cells survive
[1] = compound: CCOC(=O)CCNc1cc(N2CCc3ccccc3CC2)nc(-c2ccccn2)n1 [GSK-J4] + CC(=O)Nc1cccc(-n2c(=O)n(C3CC3)c(=O)c3c(Nc4ccc(I)cc4F)n(C)c(=O)c(C)c32)c1 [Trametinib] (partner 0.02 µM)
How it was run: (§1)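 Relative viability divides the nuclei count in treated wells by that in vehicle wells. Lung cancer cell lines were seeded in 1536-well plates, dosed by pin tool the next day, and fixed and stained after 5 days in one step with final 0.05% Triton X-100, 1% formaldehyde and 1 ug/ml Hoechst. Dosing was a single drug or a fixed anchor-drug dose plus five library-drug doses (not always all listed) in √10 steps, and values are medians of duplicate plates imaged at 4×.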

[2] = compound: CCOC(=O)CCNc1cc(N2CCc3ccccc3CC2)nc(-c2ccccn2)n1 [GSK-J4] + C[C@@H](Oc1cc(-c2cnn(C3CCNCC3)c2)cnc1N)c1c(Cl)ccc(F)c1Cl [Crizotinib] (partner 1 µM)
How it was run: as §1

[3] = compound: CN1CCC(CC1)OC2=CC(=C(C=C2)NC3=NC=C4C(=N3)N(C(=O)N4C)C5CCCC5)OC [AZ3146] + CC(C)C[C@H](NC(=O)[C@H](Cc1ccccc1)NC(=O)c1cnccn1)B(O)O [Bortezomib] (partner 0.002 µM)
How it was run: as §1

[4] = compound: CN1CCC(CC1)OC2=CC(=C(C=C2)NC3=NC=C4C(=N3)N(C(=O)N4C)C5CCCC5)OC [AZ3146] + Nc1nc2[nH]cc(CCc3ccc(C(=O)N[C@@H](CCC(=O)O)C(=O)O)cc3)c2c(=O)[nH]1 [Pemetrexed] (partner 0.2 µM)
How it was run: as §1

UMC-11
relative viability ([1]; first compound 0.5 µM): 0.666
relative viability ([1]; first compound 1.581 µM): 0.336
relative viability ([1]; first compound 5 µM): 0.255
relative viability ([1]; first compound 15.81 µM): 0.834
relative viability ([1]; first compound 50 µM): 0.521
relative viability ([2]; first compound 0.5 µM): 0.601
relative viability ([2]; first compound 1.581 µM): 0.557
relative viability ([2]; first compound 5 µM): 0.702
relative viability ([2]; first compound 15.81 µM): 0.666
relative viability ([2]; first compound 50 µM): 0.509
relative viability ([3]; first compound 0.08 µM): 0.814
relative viability ([3]; first compound 0.253 µM): 0.661
relative viability ([3]; first compound 0.8 µM): 0.598
relative viability ([3]; first compound 2.53 µM): 0.675
relative viability ([3]; first compound 8 µM): 0.635
relative viability ([4]; first compound 0.08 µM): 0.643
relative viability ([4]; first compound 0.253 µM): 0.819
relative viability ([4]; first compound 0.8 µM): 0.782
relative viability ([4]; first compound 2.53 µM): 0.775
relative viability ([4]; first compound 8 µM): 0.43
